Key:
Type in all cases: functional
[1] = test system: MCF7; assay: Cytotoxicity against Homo sapiens (human) MCF7 assessed as cell growth at 10^-4 M after 48 hr by Alamar Blue assay; conditions: MCF7, 48 h, read-out: Activity
[2] = test system: SF-268; assay: Cytotoxicity against Homo sapiens (human) SF268 assessed as cell growth at 10^-4 M after 48 hr by Alamar Blue assay; conditions: SF-268, 48 h, read-out: Activity
[3] = test system: NCI-H460; assay: Cytotoxicity against Homo sapiens (human) NCI-H460 assessed as cell growth at 10^-4 M after 48 hr by Alamar Blue assay; conditions: NCI-H460, 48 h, read-out: Activity
[4] = test system: SK-MEL-5; assay: Cytotoxicity against Homo sapiens (human) SK-MEL-5 after 48 hr by Alamar Blue assay; conditions: SK-MEL-5, 48 h
[5] = test system: TK-10; assay: Cytotoxicity against Homo sapiens (human) TK10 after 48 hr by Alamar Blue assay; conditions: TK-10, 48 h
[6] = test system: NCI-H226; assay: Cytotoxicity against Homo sapiens (human) NCI-H226 after 48 hr by Alamar Blue assay; conditions: NCI-H226, 48 h
[7] = test system: IGROV-1; assay: Cytotoxicity against Homo sapiens (human) IGROV1 after 48 hr by Alamar Blue assay; conditions: IGROV-1, 48 h
[8] = test system: U-251; assay: Cytotoxicity against Homo sapiens (human) U251 after 48 hr by Alamar Blue assay; conditions: U-251, 48 h
[9] = test system: LOX IMVI; assay: Cytotoxicity against Homo sapiens (human) LOXIMVI after 48 hr by Alamar Blue assay
[10] = test system: PC-3; assay: Cytotoxicity against Homo sapiens (human) PC3 after 48 hr by Alamar Blue assay; conditions: PC-3, 48 h
[11] = test system: NCI-H460; assay: Cytotoxicity against Homo sapiens (human) NCI-H460 after 48 hr by Alamar Blue assay; conditions: NCI-H460, 48 h
[12] = test system: OVCAR-4; assay: Cytotoxicity against Homo sapiens (human) OVCAR4 after 48 hr by Alamar Blue assay; conditions: OVCAR-4, 48 h
[13] = test system: SR; assay: Cytotoxicity against Homo sapiens (human) SR after 48 hr by Alamar Blue assay
[14] = test system: OVCAR-8; assay: Cytotoxicity against Homo sapiens (human) OVCAR8 after 48 hr by Alamar Blue assay; conditions: OVCAR-8, 48 h
[15] = test system: MCF7; assay: Cytotoxicity against Homo sapiens (human) MCF7 after 48 hr by Alamar Blue assay; conditions: MCF7, 48 h
[16] = test system: 786-0; assay: Cytotoxicity against Homo sapiens (human) 786-0 after 48 hr by Alamar Blue assay; conditions: 786-0, 48 h
[17] = test system: OVCAR-5; assay: Cytotoxicity against Homo sapiens (human) OVCAR5 after 48 hr by Alamar Blue assay; conditions: OVCAR-5, 48 h
[18] = test system: EKVX; assay: Cytotoxicity against Homo sapiens (human) EKVX after 48 hr by Alamar Blue assay
[19] = test system: HCC 2998; assay: Cytotoxicity against Homo sapiens (human) HCC2998 after 48 hr by Alamar Blue assay; conditions: HCC 2998, 48 h
[20] = test system: COLO 205; assay: Cytotoxicity against Homo sapiens (human) COLO205 after 48 hr by Alamar Blue assay; conditions: COLO 205, 48 h
[21] = test system: HT-29; assay: Cytotoxicity against Homo sapiens (human) HT-29 after 48 hr by Alamar Blue assay; conditions: HT-29, 48 h
[22] = test system: M14; assay: Cytotoxicity against Homo sapiens (human) M14 after 48 hr by Alamar Blue assay; conditions: M14, 48 h
[23] = test system: SF-268; assay: Cytotoxicity against Homo sapiens (human) SF268 after 48 hr by Alamar Blue assay; conditions: SF-268, 48 h
[24] = test system: SF-539; assay: Cytotoxicity against Homo sapiens (human) SF539 after 48 hr by Alamar Blue assay; conditions: SF-539, 48 h
[25] = test system: SF-295; assay: Cytotoxicity against Homo sapiens (human) SF295 after 48 hr by Alamar Blue assay; conditions: SF-295, 48 h
[26] = test system: T47D; assay: Cytotoxicity against Homo sapiens (human) T47D after 48 hr by Alamar Blue assay
[27] = test system: HOP-62; assay: Cytotoxicity against Homo sapiens (human) HOP62 after 48 hr by Alamar Blue assay; conditions: HOP-62, 48 h
[28] = test system: SN12C; assay: Cytotoxicity against Homo sapiens (human) SN12C after 48 hr by Alamar Blue assay
[29] = test system: SW-620; assay: Cytotoxicity against Homo sapiens (human) SW620 after 48 hr by Alamar Blue assay; conditions: SW-620, 48 h
[30] = test system: OVCAR-3; assay: Cytotoxicity against Homo sapiens (human) OVCAR3 after 48 hr by Alamar Blue assay; conditions: OVCAR-3, 48 h
[31] = test system: ACHN; assay: Cytotoxicity against Homo sapiens (human) ACHN after 48 hr by Alamar Blue assay
[32] = test system: K562; assay: Cytotoxicity against Homo sapiens (human) K562 after 48 hr by Alamar Blue assay; conditions: K562, 48 h
[33] = test system: SNB-19; assay: Cytotoxicity against Homo sapiens (human) SNB19 after 48 hr by Alamar Blue assay; conditions: SNB-19, 48 h
[34] = test system: HOP-92; assay: Cytotoxicity against Homo sapiens (human) HOP92 after 48 hr by Alamar Blue assay; conditions: HOP-92, 48 h
[35] = test system: BT-549; assay: Cytotoxicity against Homo sapiens (human) BT549 after 48 hr by Alamar Blue assay; conditions: BT-549, 48 h
[36] = test system: NCI-H522; assay: Cytotoxicity against Homo sapiens (human) NCI-H522 after 48 hr by Alamar Blue assay; conditions: NCI-H522, 48 h
[37] = test system: MDA-MB-435; assay: Cytotoxicity against Homo sapiens (human) MDA-MB-435 after 48 hr by Alamar Blue assay; conditions: MDA-MB-435, 48 h
[38] = test system: SK-MEL-2; assay: Cytotoxicity against Homo sapiens (human) SK-MEL-2 after 48 hr by Alamar Blue assay; conditions: SK-MEL-2, 48 h
[39] = test system: NCI-H322M; assay: Cytotoxicity against Homo sapiens (human) NCI-H322M after 48 hr by Alamar Blue assay
[40] = test system: Hs-578T; assay: Cytotoxicity against Homo sapiens (human) Hs 578T after 48 hr by Alamar Blue assay
[41] = Cytotoxicity against Homo sapiens (human) HL-60(TB) after 48 hr by Alamar Blue assay; conditions: HL-60, 48 h
[42] = test system: Malme-3M; assay: Cytotoxicity against Homo sapiens (human) MALME-3M after 48 hr by Alamar Blue assay
[43] = test system: SK-MEL-28; assay: Cytotoxicity against Homo sapiens (human) SK-MEL-28 after 48 hr by Alamar Blue assay; conditions: SK-MEL-28, 48 h
[44] = test system: HCT-116; assay: Cytotoxicity against Homo sapiens (human) HCT116 after 48 hr by Alamar Blue assay; conditions: HCT-116, 48 h
[45] = test system: A549; assay: Cytotoxicity against Homo sapiens (human) A549 after 48 hr by Alamar Blue assay; conditions: A549, 48 h
[46] = test system: KM12; assay: Cytotoxicity against Homo sapiens (human) KM12 after 48 hr by Alamar Blue assay; conditions: KM12, 48 h
[47] = test system: RXF 393; assay: Cytotoxicity against Homo sapiens (human) RXF393 after 48 hr by Alamar Blue assay; conditions: RXF 393, 48 h
[48] = test system: UACC-257; assay: Cytotoxicity against Homo sapiens (human) UACC257 after 48 hr by Alamar Blue assay; conditions: UACC-257, 48 h
[49] = test system: NCI/ADR-RES; assay: Cytotoxicity against Homo sapiens (human) NCI/ADR-RES after 48 hr by Alamar Blue assay
[50] = test system: HCT-15; assay: Cytotoxicity against Homo sapiens (human) HCT15 after 48 hr by Alamar Blue assay; conditions: HCT-15, 48 h
[51] = test system: UO-31; assay: Cytotoxicity against Homo sapiens (human) UO31 after 48 hr by Alamar Blue assay; conditions: UO-31, 48 h
[52] = test system: UACC-62; assay: Cytotoxicity against Homo sapiens (human) UACC62 after 48 hr by Alamar Blue assay; conditions: UACC-62, 48 h
[53] = test system: NCI-H23; assay: Cytotoxicity against Homo sapiens (human) NCI-H23 after 48 hr by Alamar Blue assay; conditions: NCI-H23, 48 h
[54] = test system: MDA-MB-231; assay: Cytotoxicity against Homo sapiens (human) MDA-MB-231 after 48 hr by Alamar Blue assay; conditions: MDA-MB-231, 48 h
[55] = test system: DU-145; assay: Cytotoxicity against Homo sapiens (human) DU145 after 48 hr by Alamar Blue assay; conditions: DU-145, 48 h
[56] = test system: CAKI-1; assay: Cytotoxicity against Homo sapiens (human) Caki1 after 48 hr by Alamar Blue assay; conditions: CAKI-1, 48 h
[57] = test system: MOLT-4; assay: Cytotoxicity against Homo sapiens (human) MOLT4 after 48 hr by Alamar Blue assay; conditions: MOLT-4, 48 h
[58] = test system: RPMI-8226; assay: Cytotoxicity against Homo sapiens (human) RPMI8226 after 48 hr by Alamar Blue assay; conditions: RPMI-8226, 48 h
[59] = test system: A498; assay: Cytotoxicity against Homo sapiens (human) A498 after 48 hr by Alamar Blue assay; conditions: A498, 48 h

Cc1ccc(C2=NOC3=c4ccccc4=CSC3=C2c2ccc([N+](=O)[O-])cc2)cc1
growth at 100 µM [1]: 99% | growth at 100 µM [2]: 111% | growth at 100 µM [3]: 97%

Cc1ccc(C2=NOC3=c4ccccc4=CSC3=C2c2ccc(C)cc2)cc1
GI50 [4]: > 100 µM | GI50 [5]: > 100 µM | GI50 [6]: > 100 µM | GI50 [7]: > 100 µM | GI50 [8]: > 100 µM | GI50 [9]: > 100 µM | GI50 [10]: > 100 µM | GI50 [11]: > 100 µM | GI50 [12]: > 100 µM | GI50 [13]: 42 µM | GI50 [14]: 40 µM | GI50 [15]: > 100 µM | GI50 [16]: > 100 µM | GI50 [17]: > 100 µM | GI50 [18]: > 100 µM | GI50 [19]: > 100 µM | GI50 [20]: > 100 µM | GI50 [21]: > 100 µM | GI50 [22]: > 100 µM | GI50 [23]: > 100 µM | GI50 [24]: > 100 µM | GI50 [25]: > 100 µM | GI50 [26]: 25.4 µM | GI50 [27]: > 100 µM | GI50 [28]: 20 µM | GI50 [29]: > 100 µM | GI50 [30]: 94.8 µM | GI50 [31]: > 100 µM | GI50 [32]: 22.9 µM | GI50 [33]: > 100 µM | GI50 [34]: 68.1 µM | GI50 [35]: > 100 µM | GI50 [36]: 53.8 µM | GI50 [37]: > 100 µM | GI50 [38]: > 100 µM | GI50 [39]: > 100 µM | growth at 100 µM [1]: 36% | GI50 [40]: > 100 µM | GI50 [41]: > 0.0001 µM | GI50 [42]: > 100 µM | GI50 [43]: > 100 µM | GI50 [44]: 57.5 µM | GI50 [45]: > 100 µM | GI50 [46]: > 100 µM | GI50 [47]: > 100 µM | GI50 [48]: > 100 µM | GI50 [49]: > 100 µM | GI50 [50]: > 100 µM | GI50 [51]: > 100 µM | GI50 [52]: > 100 µM | GI50 [53]: > 100 µM | GI50 [54]: > 100 µM | GI50 [55]: > 100 µM | growth at 100 µM [2]: 91% | GI50 [56]: > 100 µM | growth at 100 µM [3]: 93% | GI50 [57]: 37.1 µM | GI50 [58]: 69.2 µM | GI50 [59]: > 100 µM

Reference: ChEMBL document CHEMBL3046904, “Synthesis, characterization, bioactivity, and POM analyses of isothiochromeno[3,4-e][1,2]oxazines” (2013)
